Data as given in PMC5597618, “Identification and characterization of the novel reversible and selective cathepsin X inhibitors” (Scientific Reports, 2017).
Like-named read-outs stand apart in the source and are kept apart here.

Tests used:
[1] = target: T1, cathepsin X (Homo sapiens, UniProt Q9UBR2); test: Determination of relative inhibition of cathepsin X; format: biochemical; design: made in house; host or cells: Pichia pastoris
Procedure: (§1) Recombinant or native human cathepsins were used: recombinant cathepsin X and cathepsin S were expressed in Pichia pastoris, recombinant cathepsins B and L in E. coli, [43], native cathepsin H was isolated from human liver. Assay buffers for determining activities of cathepsins X and L consisted of 100 mM sodium acetate buffer, pH 5.5, for cathepsins H, S and B (endopeptidase activity) of 100 mM phosphate buffer pH 6.8, 6.5 and 6.0, respectively and for cathepsin B (exopeptidase activity) of 60 mM acetate buffer pH 5.0. Each assay buffer contained 0.01% Triton X-100 to prevent false positive inhibition due to aggregation of compounds[45], 5 mM cysteine, 1.5 mM EDTA and 0.1% PEG 8000. Enzymes were activated at 37 °C for 5 min before the assays.
Abz-FEK(Dnp)-OH was used as cathepsin X specific substrate in activity assays. 90 μL of activated cathepsin X (20 nM) was added to a black 96-well plate with 5 μL of substrate (3.25 μM final concentration) and 5 μL of the compound (50 μM final concentration). The reaction was monitored continuously at 420 nm ± 10 nm with excitation at 320 nm ± 20 nm and at 37 °C. Relative inhibition (%) was calculated with the equation (1 − v i/v 0) × 100, where v i is reaction velocity in the presence of the compound and v 0 is reaction velocity without the compound.

[2] = target: T1, cathepsin X; test: Determination of Ki values and inhibition mechanism against cathepsin X (Abz-FEK(Dnp)-OH substrate); format: biochemical; design: made in house; host or cells: Pichia pastoris; conditions: for Inhibition mechanism: ENZO
Procedure: as §1
Ki was determined by measuring the initial rate of hydrolysis at three different substrate concentrations (Supplementary Table S2) in the presence of seven different compound concentrations (0, 20, 40, 60, 80, 100 and 200 μM). 90 μL of the activated cathepsin was added to a black 96-well plate with 5 μL of the substrate and 5 μL of the compound. Formation of the fluorescent degradation product was monitored continuously at 460 nm ± 10 nm with excitation at 380 nm ± 20 nm (for AMC substrates) and, as noted above for Abz substrates, at 37 °C. All measurements were performed twice and in duplicate. The resulting data were analyzed by non-linear regression using the software SigmaPlot®, Enzyme Kinetics Module™ 1.3 and were fitted to the equation v = v max [S]/([S] (1 + [I]/αK i ) + K m (1 + [I]/K i )) (first group of compounds). For Ki determination against cathepsin X for the compounds from the second group, progress curves in the absence and presence of each putative inhibitor were fitted to the reaction mechanism presented in Fig. 3b. In this case the resulting data as well as reactivation curves were fitted to the equation system presented in Fig. 3c using ENZO application. For calculation of kinetic parameters from reaction progress curves the fluorescence coefficient for conversion of arbitrary fluorescence units to concentration was first determined. The fluorescence coefficient was calculated as the slope from the plot of initial substrate concentration vs. height of the plateau of the progress curve after complete hydrolysis of increasing concentrations of substrate, using linear regression.
Supplementary Table S2. Substrates used for the various cathepsins and their concentrations […]
Enzyme Substrate Concentration (µM) Reference/Company cathepsin X Abz-FEK(Dnp)-OH 3.25, 6.5, 13 Puzer et al.3 cathepsin B - endopept. Z-RR-AMC 60, 180, 360 Bachem cathepsin B - exopept. Abz-GIVRAK(Dnp)-OH 1, 3, 6 Bachem cathepsin S Z-VVR-AMC 0.5, 1, 1.5 Biomol cathepsin L Z-FR-AMC 0.5, 1, 4 Bachem cathepsin H Z-R-AMC 20, 80, 160 Biomol […]

[3] = second group, 50 μM compound, 1 h preincubation, read-out: % inhibition (1 h preincubation)
[4] = first group, SigmaPlot non-linear regression at 3 different substrate concentrations
[5] = screening at 50 μM compound, read-out: relative inhibition of cathepsin X
[6] = second group, progress curve analysis with ENZO

T1 sequence (Q9UBR2 62-303): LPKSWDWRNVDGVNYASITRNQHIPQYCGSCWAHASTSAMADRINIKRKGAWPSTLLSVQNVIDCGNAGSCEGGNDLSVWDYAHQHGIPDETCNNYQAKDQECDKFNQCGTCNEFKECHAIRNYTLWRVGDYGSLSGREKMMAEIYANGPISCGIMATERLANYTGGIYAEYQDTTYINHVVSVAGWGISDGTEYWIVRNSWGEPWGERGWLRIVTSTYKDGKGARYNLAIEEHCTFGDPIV

Row | Compound | inhibition at 50 µM [1, 3] [%] | other results
1 | COc1ccccc1-n1cnnc1SCC(=O)c1ccc2c(c1)OCCO2 [Compound 24, 1-(2,3-Dihydrobenzo[b][1,4]dioxin-6-yl)-2-((4-(2-methoxyphenyl)-4H-1,2,4-triazol-3-yl)thio)ethan-1-one] | 73 | 
2 | Cc1ccc(C(=O)CSc2n[nH]c(N)n2)cc1 [Compound 13, 2-((5-Amino-1H-1,2,4-triazol-3-yl)thio)-1-(p-tolyl)ethanone] | 22 | 
3 | O=C(CSc1nncn1-c1ccccc1)c1ccc2c(c1)OCCO2 [Compound 23, 1-(2,3-Dihydrobenzo[b][1,4]dioxin-6-yl)-2-((4-phenyl-4H-1,2,4-triazol-3-yl)thio)ethan-1-one] | 72 | 
4 | N#Cc1c(NC(=O)c2cc(OCCN)ccc2Cl)sc2c1CCCC2 [Compound 3, 5-(2-Aminoethoxy)-2-chloro-N-(3-cyano-4,5,6,7-tetrahydrobenzo[b]thiophen-2-yl)benzamide] |  | Ki [2, 4]: 260 ± 31.9 µM; inhibition at 50 µM [1, 5]: 60 to 75%
5 | O=C(NC1CC2C(=O)NCC(=O)N2C1)c1ccc2cccnc2n1 (stereo not drawn) [Compound 5] |  | Ki [2, 4]: 136 µM; inhibition at 50 µM [1, 5]: 60 to 75%
6 | Nc1nc(SCC(=O)c2ccc3c(c2)OCO3)n[nH]1 [Compound 8, 2-((5-Amino-1H-1,2,4-triazol-3-yl)thio)-1-(benzo[d][1,3]dioxol-5-yl) ethanone] | 67 | 
7 | Nc1nc(SCC(=O)c2ccc(Oc3ccccc3)cc2)n[nH]1 [Compound 9, 2-((5-Amino-1H-1,2,4-triazol-3-yl)thio)-1-(4-phenoxyphenyl)ethanone] | 27 | 
8 | Cc1[nH]c2ccccc2c1C(=O)C(C)Sc1n[nH]c(N)n1 (stereo not drawn) [Compound 15, 2-((5-Amino-1H-1,2,4-triazol-3-yl)thio)-1-(2-methyl-1H-indol-3-yl)propan-1-one] | 23 | 
9 | COc1cc2c(cc1OC)CN(C(=O)CSc1n[nH]c(N)n1)CC2 [Compound 7, 2-((5-Amino-1H-1,2,4-triazol-3-yl)thio)-1-(6,7-dimethoxy-3,4-dihydroisoquinolin-2(1 H)-yl)ethanone] | 0 | relative inhibition of cathepsin X ([1]; screening at 50 μM compound): devoid of any inhibitory activity
10 | O=C(CSc1nc(C2CC2)n[nH]1)c1ccc2c(c1)OCCO2 [Compound 17, 2-((3-Cyclopropyl-1H-1,2,4-triazol-5-yl)thio)-1-(2,3-dihydrobenzo[b][1,4]dioxin-6-yl)ethan-1-one] | 72 | Inhibition mechanism ([2]; second group): competitive; Ki [2, 6]: 7.35 ± 0.28 µM; inhibition at 50 µM [1, 5]: > 70%
11 | N#Cc1ccc(C(=O)CSc2n[nH]c(N)n2)cc1 [Compound 16, 4-(2-((5-Amino-1H-1,2,4-triazol-3-yl)thio)acetyl)benzonitrile] | 15 | 
12 | COc1ccc(C(=O)C(C)Sc2nncn2C)cc1OC (stereo not drawn) [Compound 18, 1-(3,4-Dimethoxyphenyl)-2-((4-methyl-4H-1,2,4-triazol-3-yl)thio)propan-1-one] | 25 | 
13 | COc1ccccc1C(=O)CSc1n[nH]c(N)n1 [Compound 25, 2-((5-Amino-1H-1,2,4-triazol-3-yl)thio)-1-(2-methoxyphenyl)ethan-1-one] | 50 | 
14 | N#Cc1c(NC(=O)c2cc(OCCCN)ccc2Cl)sc2c1CCCC2 [Compound 4, 5-(3-Aminopropoxy)-2-chloro-N-(3-cyano-4,5,6,7-tetrahydrobenzo[b]thiophen-2-yl)benzamide] |  | Ki [2, 4]: 230 ± 2.9 µM; inhibition at 50 µM [1, 5]: 60 to 75%
15 | COc1ccc(C(=O)CSc2n[nH]c(N)n2)cc1F [Compound 21, 2-((5-Amino-1H-1,2,4-triazol-3-yl)thio)-1-(3-fluoro-4-methoxyphenyl)ethan-1-one] | 39 | 
16 | Nc1cc(N)nc(SCC(=O)c2ccc3c(c2)OCCO3)n1 [Compound 19, 2-((4,6-Diaminopyrimidin-2-yl)thio)-1-(2,3-dihydrobenzo[b][1,4]dioxin-6-yl)ethan-1-one] | 27 | 
17 | Nc1nc(SCC(=O)c2ccc(-c3ccccc3)cc2)n[nH]1 [Compound 10, 1-([1,1′-Biphenyl]-4-yl)-2-((5-amino-1H-1,2,4-triazol-3-yl)thio)ethanone] | 64 | 
18 | O=C(CSc1nnc(N2CCCC2)n1C1CC1)c1ccc2c(c1)OCCO2 [Compound 14, 2-((4-Cyclopropyl-5-(pyrrolidin-1-yl)-4H-1,2,4-triazol-3-yl)thio)-1-(2,3-dihydrobenzo[b][1,4]dioxin-6-yl)ethanone] | 74 | Inhibition mechanism ([2]; second group): competitive; Ki [2, 6]: 5.41 ± 0.19 µM; inhibition at 50 µM [1, 5]: > 70%
19 | O=C(CSc1nc[nH]n1)c1ccc2c(c1)OCCO2 [Compound 11, 2-((1H-1,2,4-triazol-3-yl)thio)-1-(2,3-dihydrobenzo[b][1,4]dioxin-6-yl) ethanone] | 72 | 
20 | Cc1[nH]c2ccccc2c1C(=O)CSc1nnc[nH]1 [Compound 6, 2-((4H-1,2,4-triazol-3-yl)thio)-1-(2-methyl-1H-indol-3-yl)ethanone] | 44 | 
